Reference: ChEMBL document CHEMBL2429800, “A new trypsin inhibitory phthalic acid ester from Heliotropium strigosum” (Med Chem Res, 2013)

Biological target: Trypsin (Homo sapiens, UniProt P07477+P07478+P35030)
Test: Competitive inhibition of trypsin (unknown origin) using […] as substrate incubated for 20 mins prior to substrate addition by Dixon plot/ Lineweaver-Burk plot analysis
Format: protein assay

SMILES	Ki [µM]
CCCCCCCCC(CC)COC(=O)c1ccccc1C(=O)OCC(CC)CCCCCCCC (configuration not stated)	12.1
O=S(=O)(F)Cc1ccccc1 [PHENYLMETHYLSULFONYLFLUORIDE]	10.01
